Values quoted from earlier work as cited in patent publication US7026304B2, “2-alkylated-cyclodextrin derivatives: reversal agents for drug-induced neuromuscular block” (Akzo Nobel N.V., priority 2001, dated 2006).

System: steady-state neuromuscular block induced by the muscle relaxant rocuronium bromide (Roc)
Conditions: anaesthetized guinea pigs, as already described in WO 01/12202, cited from earlier work

SMILES: OC[C@H]1O[C@@H]2O[C@H]3[C@H](O)[C@@H](O)[C@@H](O[C@H]4[C@H](O)[C@@H](O)[C@@H](O[C@H]5[C@H](O)[C@@H](O)[C@@H](O[C@H]6[C@H](O)[C@@H](O)[C@@H](O[C@H]7[C@H](O)[C@@H](O)[C@@H](O[C@H]8[C@H](O)[C@@H](O)[C@@H](O[C@H]9[C@H](O)[C@@H](O)[C@@H](O[C@H]1[C@H](O)[C@H]2O)O[C@@H]9CO)O[C@@H]8CO)O[C@@H]7CO)O[C@@H]6CO)O[C@@H]5CO)O[C@@H]4CO)O[C@@H]3CO [γ-cyclodextrin]
- ED50, dose producing 50% reversal of steady-state neuromuscular block (parent cyclodextrins for comparison): 4 µmol/kg
- % max reversal (parent cyclodextrins): 104%
- dose at maximum reversal (parent cyclodextrins): (47) μmol · kg^−1
